Reference: patent EP0063525A1, “Dibenzazepine tetracyclic derivatives, process for their preparation and pharmaceutical compositions containing them” (CENTRE NATIONAL DE LA RECHERCHE SCIENTIFIQUE (CNRS), priority 1981, dated 1982)
Read-outs that look alike come from different tables or passages of the source.

How the values were obtained:
Souris [1] = experiment: antireserpine activity: reserpine hypothermia; format: in vivo; settings: réserpine 5 mg/kg i.p. 17 h before
Procedure: On note ensuite les températures témoins (réserpine), puis les températures 1, 2, 3 et 4 heures après l'administration des produits étudiés.
Les animaux sont répartis en lots de 4 animaux et reçoivent par voie intrapéritonéale la réserpine à une dose de 5 mg/kg. 17 heures après cette injection, on mesure la température corporelle de l'animal à l'aide d'une sonde thermocouple introduite dans le rectum; chaque lot reçoit ensuite la substance par voie intrapéritonéale. Le lot témoin reçoit la même quantité de solvant et par la même voie. La température corporelle est ensuite mesurée toutes les heures pendant 4 heures.
Les résultats sont rassemblés dans un tableau récapitulatif-où sont indiqués : • - la température moyenne pour chaque lot relevée 17 heures après l'injection de la réserpine, • - la moyenne des variations de température pour chaque lot relevées 1,2, 3 et 4 heures après l'injection de la substance étudiée, • - la somme des variations de températures pendant 4 heures, • - le pourcentage d'augmentation de la température pour chaque produit par rapport aux témoins.

Souris [2] = experiment: tetrabenazine hypothermia; format: in vivo
Procedure: (§1) Ce test permet de révéler également une activité antidépressive avec l'avantage d'une lecture plus rapide qu'avec la réserpine.
Les produits sont injectés 30 minutes avant l'administration de tétrabénazine.
Les températures sont relevées aux temps : 0, 30 minutes, 60 minutes, 90 minutes et 120 minutes.
(§2) Les souris sont réparties par lots de 5.
Les températures sont relevées avant l'injection de tétrabénazine, 30 minutes, 60 minutes, 90 minutes et 120 minutes après.
(§3) Le lot témoin comprend 20 souris.

[3] = acute toxicity in the mouse, intraperitoneal; format: in vivo, Souris; settings: mouse, in vivo, ip, voie intrapéritonéale; for mortality at 48 h: read-out: Mortalité %
From the text: (§4) Les produits ont été administrés par voie intrapéritonéale à des souris femelles dont le poids variait de 18 à 30 g.
(§5) Les animaux injectés ont été maintenus dans une salle thermostatée, nourris et abreuvés à volonté.
(§6) La mortalité a été relevée à 1 heure, 4 heures, 24 heures et 48 heures.

souris femelles = experiment: acute toxicity in the mouse, intraperitoneal; format: in vivo; settings: voie intrapéritonéale
From the text: as §4, §5, §6

Souris [4] = experiment: tetrabenazine ptosis; format: in vivo
Procedure: as §1, §2
Le ptosis est noté avant l'injection de tétrabénazine, 30 minutes, 60 minutes, 90 minutes et 120 minutes après.
On a adopté la notation suivante : • - 0 : pour un oeil ouvert, • - 1 : pour un oeil fermé au quart, • - 2 : pour un oeil fermé à moitié, • - 3 : pour un oeil fermé aux trois-quarts, • - 4 : pour un oeil fermé complètement.
as §3

[5] = product i.p. 80 mg/kg 30 min before tétrabénazine 32 mg/kg i.v.
[6] = product i.p. 50 mg/kg 30 min before tétrabénazine 32 mg/kg i.v.
[7] = 50 mg/kg, dead mice of the group
[8] = 100 mg/kg, dead mice of the group
[9] = 200 mg/kg, dead mice of the group
[10] = product i.p. 50 mg/kg 30 min before tétrabénazine 32 mg/kg i.v., score 0-4 per eye
[11] = product i.p. 150 mg/kg 30 min before tétrabénazine 32 mg/kg i.v.
[12] = 300 mg/kg, dead mice of the group
[13] = 750 mg/kg, dead mice of the group
[14] = 1500 mg/kg, dead mice of the group
[15] = product i.p. 150 mg/kg 30 min before tétrabénazine 32 mg/kg i.v., score 0-4 per eye

## O=C(O)CCCCCCNC1c2ccccc2CCc2ccccc21 [Aminep-tine, amineptine, reference compound]
Souris [1]; product i.p. 80 mg/kg
  variation de température T=1h: +1,5
  variation de température T= 2h: +1,6
  variation de température T=3h: +1
  variation de température T=4h: +0,1
Souris [2]; ip, 2 h, hypothermie, product i.p. 80 mg/kg 30 min before tétrabénazine 32 mg/kg i.v., read-out: % de protection
  inhibition in vivo at 80 mg/kg: 51%
Souris [2]; [5]
  Température après tétrabénazine 30 minutes: -1,8
  Température après tétrabénazine 60 minutes: -1,8
  Température après tétrabénazine 90 minutes: -1,1
  Température après tétrabénazine 120 minutes: -0,2
  Température après tétrabénazine Total: -4,2

## CN(C)CCN1c2ccccc2C=Cc2ccccc21 [compound 20, (β-diméthylaminoéthyl)-5 dibenzo [b,f] 5H azépine, reference compound]
Souris [1]; ip, 4 h, product i.p. 50 mg/kg, read-out: % d'augmentation par rapport aux témoins
  change in vivo at 50 mg/kg: 440%
Souris [1]; product i.p. 50 mg/kg
  Augmentation de température en 4 h: +10,8
  variation de température T= 2h: +2,7
  variation de température T=3h: +2
  variation de température T=4h: +1
Souris [2]; ip, 2 h, hypothermie, product i.p. 50 mg/kg 30 min before tétrabénazine 32 mg/kg i.v., read-out: % de protection
  inhibition in vivo at 50 mg/kg: 46%
Souris [2]; [6]
  Température après tétrabénazine 30 minutes: -3,1
  Température après tétrabénazine 60 minutes: -0,2
  Température après tétrabénazine 90 minutes: -0,3
  Température après tétrabénazine 120 minutes: -1
  Température après tétrabénazine Total: -4,6
[3]; souris femelles, read-out: DL 50
  LD50 at 48 h: 75 mg/kg
[3]; 50 mg/kg
  mortality at 48 h: 0%
[3]; 100 mg/kg
  mortality at 48 h: 60%
[3]; 200 mg/kg
  mortality at 48 h: 100%
Souris femelles; [7]
  Mortalité en 1 heure: 0
  Mortalité en 48 h.: 0
Souris femelles; [8]
  Mortalité en 1 heure: 3
  Mortalité en 48 h.: 3
Souris femelles; [9]
  Mortalité en 1 heure: 5
  Mortalité en 48 h.: 5
Souris [4]; ip, 2 h, ptosis, product i.p. 50 mg/kg 30 min before tétrabénazine 32 mg/kg i.v., read-out: % de protection
  inhibition in vivo at 50 mg/kg: 60%
Souris [4]; [6]
  Ptosis Total: 12,2
Souris [4]; [10]
  Ptosis 30 minutes: 2,2
  Ptosis 60 minutes: 3,4
  Ptosis 90 minutes: 3,2
  Ptosis 120 minutes: 3,6

## ( [1'-(β-hydroxyéthyl-4') pipérazinyl]-3propyl)-8 diphényl-1,3 tétrahydro-1,3a, 8,12b(dibenzo[b,f] pyrazolo [3,4-d])azépine [compound 10]
Souris [1]; product i.p. 150 mg/kg
  % d'augmentation par rapport aux témoins: 205%
  variation de température T= 2h: +2,4
  variation de température T=3h: +1,4
  variation de température T=4h: +0,6
Souris [2]; hypothermie, product i.p. 150 mg/kg 30 min before tétrabénazine 32 mg/kg i.v.
  % de protection: 53%
Souris [2]; [11]
  Température après tétrabénazine 30 minutes: -1,7
  Température après tétrabénazine 60 minutes: -1,9
  Température après tétrabénazine 90 minutes: +0,6
  Température après tétrabénazine 120 minutes: -1
  Température après tétrabénazine Total: -4
Souris femelles; souris femelles, 2880 min
  DL 50: >750 mg/kg
Souris femelles; 200 mg/kg, 2880 min
  Mortalité %: 0%
Souris femelles; [9]
  Mortalité en 1 heure: 0
  Mortalité en 48 h.: 0
Souris femelles; 300 mg/kg, 2880 min
  Mortalité %: 0%
Souris femelles; [12]
  Mortalité en 1 heure: 0
  Mortalité en 48 h.: 0
Souris femelles; 750 mg/kg, 2880 min
  Mortalité %: 0%
Souris femelles; [13]
  Mortalité en 1 heure: 0
  Mortalité en 48 h.: 0
Souris femelles; [14]
  Mortalité en 1 heure: 0
  Mortalité en 48 heures: 1
Souris [4]; [11]
  Ptosis Total: 20,8
Souris [4]; [15]
  Ptosis 30 minutes: 1
  Ptosis 60 minutes: 6
  Ptosis 90 minutes: 5,8
  Ptosis 120 minutes: 8
Souris [4]; product i.p. 150 mg/kg, before tétrabénazine, score 0-4 per eye
  Ptosis T = 0: 0
Souris [4]; ptosis, product i.p. 150 mg/kg 30 min before tétrabénazine 32 mg/kg i.v.
  % de protection: 31%
